Data taken from patent US20250188075A1, “SUBSTITUTED HETEROCYCLIC CSNK1 INHIBITORS” (The Broad Institute, Inc., priority 2022, published 2025).

Molecular target: human Ether-a-go-go-Related Gene (hERG) potassium channel (Homo sapiens (Human), UniProt Q12809)
Assay: hERG inhibition assay, automated voltage clamp
Format: cell-based
Conditions: HEK293 cells stably expressing hERG alpha subunit
Procedure: Following harvest, cells were transferred to the cell reservoir of a 384 channel automated patch clamp device and stored there at 20° C. until usage.
Upon start of the automated voltage clamp procedure, hERG cells were transferred to a 384 well patch clamp chip (pipette resistance of ˜[…] (2) prefilled with external solution (containing in mM: 143 NaCl, 4 KCl, 2 CaCl2), 1 MgCl2, 5 glucose, 10 HEPES; pH 7.4 (NaOH)). Underpressure was applied underneath the glass bottom of the patch clamp chip to position the hERG cells on the recording sites in the glass bottom of the chip. Following successful cell catch, underpressure was stopped and a seal enhancing solution (containing in mM: 78 NaCl, 60 NMDG, 4 KCl, 10 CaCl2), 1 MgCl2, 5 glucose, 10 HEPES; pH 7.4 (HCl)) was added to the hERG cells to facilitate the formation of stable seals between the membranes of the hERG cells and the glass next to the recording sites. Then, hERG cells were washed several times with wash solution (containing in mM: 87 NaCl, 60 NMDG, 4 KCl, 2 CaCl2), 1 MgCl2, 5 glucose, 10 HEPES; pH 7.4 (HCl)) to remove excess seal enhancing solution. In the meantime, the membrane parts of the hERG cells covering the recording sites were exposed to internal solution (containing in mM: 10 NaCl, 123 KF, 10 EGTA, 10 HEPES; pH 7.2 (KOH)) supplemented with 5-20 μM Escin, and the perforated patch configuration was established. Next, the holding potential was stepwise adjusted to −80 mV, capacitance was compensated, and a series of defined voltage commands was initiated to trigger the hERG current response from the hERG cells (−80 mV for 200 ms, +20 mV for 1000 ms, −40 mV for 500 ms; repeated at a frequency of 0.1 Hz). To determine whether the test item inhibits hERG, different solutions were sequentially applied to the hERG cells: First, a negative control (i.e. wash solution supplemented with 0.3% DMSO and 0.01% HSA) was applied for at least 3 min to investigate the basic electrophysiological properties of the hERG cells as well as define their standard current response. Next, a solution containing the test item at a final concentration of (0.1, 1, or 10) μM was applied for 10 min to measure eventual inhibitory effects of the test item on the hERG current (—the test item solution was produced from a 10 mM DMSO stock by using an automated pipetting device and sequential dilution). Finally, a positive control (i.e. wash solution supplemented with 0.3% DMSO, 0.01% HSA, and 10 μM quinidine) was added to the cells for ˜3 min to block the hERG current and, thereby, define the maximum inhibition. For data analysis, experimental results were processed using the automated patch clamp device-specific software as well as a custom-made software, and TIBCO Spotfire. For each successful recording, hERG tail current amplitudes were averaged from three consecutive current responses at the end of the negative control phase, test item phase, and positive control phase, respectively. Resulting mean hERG tail current amplitudes were normalized to the mean hERG tail current amplitude at the end of the negative control phase with nominal 0% inhibition as well as the hERG tail current amplitude at the end of the positive control phase with nominal 100% inhibition. Then, the effect of the test item was calculated as a percentage inhibition value at the test item concentration applied. Finally, percentage inhibition values from all successful recordings at a particular test item concentration were averaged and combined to construct a standard sigmoidal dose response curve, determine the half maximal inhibitory concentration (IC50) of the test item as well as extrapolate its IC20.

human Ether-a-go-go-Related Gene (hERG) potassium channel, sequence (Q12809 whole entry): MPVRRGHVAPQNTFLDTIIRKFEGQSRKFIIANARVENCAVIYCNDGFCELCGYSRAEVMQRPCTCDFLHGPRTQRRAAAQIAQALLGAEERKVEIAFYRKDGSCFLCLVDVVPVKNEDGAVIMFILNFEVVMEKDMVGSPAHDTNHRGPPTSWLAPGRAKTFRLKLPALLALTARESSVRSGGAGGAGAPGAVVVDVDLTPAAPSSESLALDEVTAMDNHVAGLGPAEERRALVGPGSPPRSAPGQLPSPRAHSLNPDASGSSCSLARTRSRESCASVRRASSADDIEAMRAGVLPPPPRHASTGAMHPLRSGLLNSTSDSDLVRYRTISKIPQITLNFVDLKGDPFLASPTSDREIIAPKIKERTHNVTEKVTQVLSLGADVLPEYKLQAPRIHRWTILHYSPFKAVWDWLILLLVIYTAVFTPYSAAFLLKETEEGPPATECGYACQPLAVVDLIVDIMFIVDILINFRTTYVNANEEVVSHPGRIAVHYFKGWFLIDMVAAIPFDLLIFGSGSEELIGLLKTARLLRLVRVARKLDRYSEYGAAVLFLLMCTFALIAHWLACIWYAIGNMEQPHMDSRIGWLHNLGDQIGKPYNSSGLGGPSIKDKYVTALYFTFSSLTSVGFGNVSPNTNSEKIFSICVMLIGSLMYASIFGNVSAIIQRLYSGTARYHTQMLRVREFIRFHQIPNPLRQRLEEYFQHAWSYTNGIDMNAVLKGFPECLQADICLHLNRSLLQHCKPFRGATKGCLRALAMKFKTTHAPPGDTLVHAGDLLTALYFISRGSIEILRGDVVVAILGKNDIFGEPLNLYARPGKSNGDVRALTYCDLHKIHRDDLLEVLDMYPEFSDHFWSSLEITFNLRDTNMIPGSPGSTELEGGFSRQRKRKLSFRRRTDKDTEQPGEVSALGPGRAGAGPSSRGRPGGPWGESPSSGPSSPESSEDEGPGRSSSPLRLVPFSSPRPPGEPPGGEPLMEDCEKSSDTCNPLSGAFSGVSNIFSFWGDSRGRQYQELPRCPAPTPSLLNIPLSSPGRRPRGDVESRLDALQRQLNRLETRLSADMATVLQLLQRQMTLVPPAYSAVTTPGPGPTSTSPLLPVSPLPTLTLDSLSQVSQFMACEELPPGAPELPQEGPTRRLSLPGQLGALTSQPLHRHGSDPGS

SMILES | IC50 [µM]
Cc1nc(CC(=O)Nc2cc(-c3[nH]c4cccnc4c3-c3ccccn3)ccn2)cs1 [Example 3, 2-(2-methylthiazol-4-yl)-N-[4-[3-(2-pyridyl)-^1H-pyrrolo[3,2-b]pyridin-2-yl]-2-pyridyl]acetamide] | 5.98
O=C(Cc1cnc2ccccc2n1)Nc1cc(-c2[nH]c3cccnc3c2-c2ccccn2)ccn1 [Example 6, N-[4-[3-(2-pyridyl)-^1H-pyrrolo[3,2-b]pyridin-2-yl]-2-pyridyl]-2-quinoxalin-2-yl-acetamide] | 5.35
O=C(Cc1cc2ccccn2n1)Nc1cc(-c2[nH]c3cccnc3c2-c2ccccn2)ccn1 [Example 15, 2-pyrazolo[1,5-a]pyridin-2-yl-N-[4-[3-(2-pyridyl)-^1H-pyrrolo[3,2-b]pyridin-2-yl]-2-pyridyl]acetamide] | 1.45
Cc1nc(C)c(CC(=O)Nc2cc(-c3[nH]c4cccnc4c3-c3ccccn3)ccn2)s1 [Example 18, 2-(2,4-dimethylthiazol-5-yl)-N-[4-[3-(2-pyridyl)-^1H-pyrrolo[3,2-b]pyridin-2-yl]-2-pyridyl]acetamide] | 2.05
O=C(Cc1cnco1)Nc1cc(-c2[nH]c3cccnc3c2-c2ccccn2)ccn1 [Example 4] | > 10
CC(C)n1ccc(CC(=O)Nc2cc(-c3[nH]c4cccnc4c3-c3ccccn3)ccn2)n1 [Example 28, 2-(1-isopropylpyrazol-3-yl)-N-[4-[3-(2-pyridyl)-^1H-pyrrolo[3,2-b]pyridin-2-yl]-2-pyridyl]acetamide] | 8.69
Cn1nc(CC(=O)Nc2cc(-c3[nH]c4cccnc4c3-c3ccccn3)ccn2)cc1C(F)(F)F [Example 21, 2-[1-methyl-5-(trifluoromethyl)pyrazol-3-yl]-N-[4-[3-(2-pyridyl)-^1H-pyrrolo[3,2-b]pyridin-2-yl]-2-pyridyl]acetamide] | 0.81
